# Reference: patent US20090131431A1, “Pyrazolo[3,4-b]pyridine compounds, and their use as a PDE4 inhibitors” (priority 2005, published 2009)
# Structures can show the parent of a compound that is named as a salt.
# Target: T1, PDE4B (human recombinant) (Homo sapiens, UniProt Q07343)
# T1 construct: made in house
# Experiment: Inhibition of PDE4B activity: SPA and/or Fluorescence Polarisation (FP) assay
# Type: biochemical
# Conditions: one reading (n=1) or average of 2 or more readings, read-out: PDE4B pIC50 (±about 0.5) (converted)
# Procedure: The ability of compounds to inhibit catalytic activity at PDE4B or 4D (human recombinant), PDE3 (from bovine aorta), PDE5 (human recombinant) or PDE6 (from bovine retina) can optionally be determined by Scintillation Proximity Assay (SPA) in a 96-well format.
# The enzyme concentration is adjusted so that no more than 20% hydrolysis of the substrate defined below occurs in control wells without compound, during the incubation. For the PDE3, PDE4B and PDE4D assays, [5′,8-3H]Adenosine 3′,5′-cyclic phosphate (Amersham Pharmacia Biotech, code TRK.559; or Amersham Biosciences UK Ltd, Pollards Wood, Chalfont St Giles, Buckinghamshire HP8 4SP, UK) is added to give 0.05 uCi per well and about 10 nM final concentration. […] Plates containing assay mixture, suitably approx. 100 ul volume of assay mixture, are mixed on an orbital shaker for 5 minutes and incubated at ambient temperature for 1 hour. Phosphodiesterase SPA beads (Amersham Pharmacia Biotech, code RPNQ 0150) are added (about 1 mg per well) to terminate the assay. Plates are sealed and shaken and allowed to stand at ambient temperature for 35 minutes to 1 hour (suitably 35 minutes) to allow the beads to settle. […] Curves are analysed using ActivityBase and XLfit (ID Business Solutions Limited, 2 Ocean Court, Surrey Research Park, Guildford, Surrey GU2 7QB, United Kingdom). Results are expressed as pIC50 values.
# The ability of compounds to inhibit catalytic activity at PDE4B (human recombinant) or PDE4D (human recombinant) can optionally be determined by IMAP Fluorescence Polarisation (FP) assay (IMAP Explorer kit, available from Molecular Devices Corporation, Sunnydale, Calif., USA; Molecular Devices code: R8062) in 384-well format.
# The IMAP FP assay is able to measure PDE activity in an homogenous, non-radioactive assay format. The FP assay uses the ability of immobilised trivalent metal cations, coated onto nanoparticles (tiny beads), to bind the phosphate group of Fl-AMP that is produced on the hydrolysis of fluorescein-labelled (Fl) cyclic adenosine mono-phosphate (Fl-cAMP) to the non-cyclic Fl-AMP form. […] Binding of Fl-AMP product to the beads (coated with the immobilised trivalent cations) slows the rotation of the bound Fl-AMP and leads to an increase in the fluorescence polarisation ratio of parallel to perpendicular light. Inhibition of the PDE reduces/inhibits this signal increase.
# The enzyme level is set by experimentation so that reaction is linear throughout the incubation. Fluorescein adenosine 3′,5′-cyclic phosphate (from Molecular Devices Corporation, Molecular Devices code: R7091) is added to give about 40 nM final concentration (final assay volume usually ca. 20-40 ul, suitably ca. 20 ul). Plates are mixed on an orbital shaker for 10 seconds and incubated at ambient temperature for 40 minutes. IMAP binding reagent (as described above, from Molecular Devices Corporation, Molecular Devices code: R7207) is added (60 ul of a 1 in 400 dilution in binding buffer of the kit stock solution) to terminate the assay. Plates are allowed to stand at ambient temperature for 1 hour. The Fluorescence Polarisation (FP) ratio of parallel to perpendicular light is measured using an Analyst™ plate reader (from Molecular Devices Corporation). […] Curves are analysed using ActivityBase and XLfit (ID Business Solutions Limited, 2 Ocean Court, Surrey Research Park, Guildford, Surrey GU2 7QB, United Kingdom). Results are expressed as plC50 values.
# T1 sequence (Q07343 1-564 isoform Q07343-2): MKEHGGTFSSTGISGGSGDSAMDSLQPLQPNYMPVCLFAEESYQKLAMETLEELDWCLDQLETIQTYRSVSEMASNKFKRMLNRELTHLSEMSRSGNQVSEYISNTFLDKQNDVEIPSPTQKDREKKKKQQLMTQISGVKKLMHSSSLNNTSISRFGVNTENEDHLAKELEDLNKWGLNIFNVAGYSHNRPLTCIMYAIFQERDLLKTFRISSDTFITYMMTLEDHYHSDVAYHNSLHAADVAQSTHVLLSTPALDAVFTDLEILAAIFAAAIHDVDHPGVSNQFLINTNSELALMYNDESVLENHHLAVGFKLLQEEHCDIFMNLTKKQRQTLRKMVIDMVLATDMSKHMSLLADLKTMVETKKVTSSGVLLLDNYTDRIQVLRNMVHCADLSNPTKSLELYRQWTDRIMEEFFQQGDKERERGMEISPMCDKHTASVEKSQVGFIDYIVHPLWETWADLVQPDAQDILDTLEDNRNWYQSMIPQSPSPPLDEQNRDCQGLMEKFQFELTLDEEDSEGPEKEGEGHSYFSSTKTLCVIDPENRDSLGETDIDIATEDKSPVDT
row,IC50 [nM],Compound
1,0.01 to 0.1,"CCc1nc2c(cnn2CC)c(NC2CCOCC2)c1CNC(=O)c1ccc2c(c1)CCCS2(=O)=O [Example 258, N-{[1,6-diethyl-4-(tetrahydro-2H-pyran-4-ylamino)-1H-pyrazolo[3,4-b]pyridin-5-yl]methyl}-3,4-dihydro-2H-1-benzothiopyran-6-carboxamide 1,1-dioxide]"
2,0.01 to 0.1,"CCc1nc2c(cnn2CC)c(NC2CCOCC2)c1CNC(=O)c1ccc(NC(C)=O)cc1OC [Example 157, 4-(acetylamino)-N-{[1,6-diethyl-4-(tetrahydro-2H-pyran-4-ylamino)-1H-pyrazolo[3,4-b]pyridin-5-yl]methyl}-2-(methyloxy)benzamide]"
3,0.126 to 1,"CCn1ncc2c(NC3CCOCC3)c(CNC(=O)c3ccsc3)c(C)nc21 [Example 227, N-{[1-ethyl-6-methyl-4-(tetrahydro-2H-pyran-4-ylamino)-1H-pyrazolo[3,4-b]pyridin-5-yl]methyl}-3-thiophenecarboxamide]"
4,0.126 to 1,"CCc1nc2c(cnn2CC)c(NC2CCOCC2)c1CN1CCN(C)C1=O [Example 343, 1-{[1,6-diethyl-4-(tetrahydro-2H-pyran-4-ylamino)-1H-pyrazolo[3,4-b]pyridin-5-yl]methyl}-3-methyl-2-imidazolidinone]"
5,0.01 to 0.1,"CCc1nc2c(cnn2CC)c(NC2CCOCC2)c1CNC(=O)c1ccccc1O [Example 250, N-{[1,6-diethyl-4-(tetrahydro-2H-pyran-4-ylamino)-1H-pyrazolo[3,4-b]pyridin-5-yl]methyl}-2-hydroxybenzamide]"
6,0.01 to 0.1,"CCc1nc2c(cnn2CC)c(NC2CCOCC2)c1CNC(=O)c1cccc(N2CCCC2=O)c1 [Example 149, N-{[1,6-diethyl-4-(tetrahydro-2H-pyran-4-ylamino)-1H-pyrazolo[3,4-b]pyridin-5-yl]methyl}-3-(2-oxo-1-pyrrolidinyl)benzamide]"
7,0.126 to 1,"CCn1ncc2c(NC3CCN(C(N)=O)CC3)c(CNC(=O)c3ccccc3F)c(C)nc21 [Example 266, 4-{[1-ethyl-5-({[(2-fluorophenyl)carbonyl]amino}methyl)-6-methyl-1H-pyrazolo[3,4-b]pyridin-4-yl]amino}-1-piperidinecarboxamide]"
8,0.01 to 0.1,"CCc1nc2c(cnn2CC)c(NC2CCN(C(N)=O)CC2)c1CNC(=O)c1ccc(N2CCCCC2)cc1 [Example 204, 4-({1,6-diethyl-5-[({[4-(1-piperidinyl)phenyl]carbonyl}amino)methyl]-1H-pyrazolo[3,4-b]pyridin-4-yl}amino)-1-piperidinecarboxamide]"
9,0.01 to 0.1,"CCc1nc2c(cnn2CC)c(NC2CCN(C(N)=O)CC2)c1CN1Cc2ccccc2C1=O [Example 212, [4-({1,6-diethyl-5-[(1-oxo-1,3-dihydro-2H-isoindol-2-yl)methyl]-1H-pyrazolo[3,4-b]pyridin-4-yl}amino)-1-piperidinecarboxamide], Formate]"
10,0.01 to 0.1,"CCc1nc2c(cnn2CC)c(NC2CCOCC2)c1CN1Cc2ccc(C(F)(F)F)cc2C1=O [Example 317, 2-{[1,6-diethyl-4-(tetrahydro-2H-pyran-4-ylamino)-1H-pyrazolo[3,4-b]pyridin-5-yl]methyl}-6-(trifluoromethyl)-2,3-dihydro-1H-isoindol-1-one]"
11,0.01 to 0.1,"CCc1nc2c(cnn2CC)c(NC2CCOCC2)c1CNC(=O)c1ccc(N2CCCCC2)cc1 [Example 175, N-{[1,6-diethyl-4-(tetrahydro-2H-pyran-4-ylamino)-1H-pyrazolo[3,4-b]pyridin-5-yl]methyl}-4-(1-piperidinyl)benzamide]"
12,0.126 to 1,"CCc1nc2c(cnn2CC)c(NC2CCOCC2)c1CNS(=O)(=O)C(C)C [Example 173, N-{[1,6-diethyl-4-(tetrahydro-2H-pyran-4-ylamino)-1H-pyrazolo[3,4-b]pyridin-5-yl]methyl}-2-propanesulfonamide]"
13,0.126 to 1,"CCc1nc2c(cnn2CC)c(NC2CCOCC2)c1CNC(=O)c1ccc(C)nc1 [Example 334, N-{[1,6-diethyl-4-(tetrahydro-2H-pyran-4-ylamino)-1H-pyrazolo[3,4-b]pyridin-5-yl]methyl}-6-methyl-3-pyridinecarboxamide]"
